Where two headings read alike, the source gives them in different places.
Key:
[1] = system: human diploid fibroblasts (HDF-3); test: G1-S progression assay (BrdU incorporation); type: cell-based
Protocol: This assay is designed to determine the ability of compounds to inhibit progression of cells from G1 into S-phase. […] The protocol is as follows:
(1) Grow human diploid fibroblasts (HDF-3) in 100 mm tissue culture dish to confluency. (2) Plate 6-7×10^3 cells/well in a 96 well plate in 100 μl of DMEM. (3) After 16-17 h add various dilutions of test compounds (0.045-100 μM). Dilute compound in DMEM containing DMSO and add 100 μl to each well so that the DMSO conc. is 0.6-0.8% in 200 μl final volume. (4) Two h after addition of compound, add 20 ul of 100 μM BrdU (final conc. 10 μM) Make 100 μM solution in DMEM from 10 mM stock solution. (5) After 4 h, add 200 μl PBS to each well and remove the contents of the wells by inverting the plate and soaking on to the paper towel. Repeat the washing step three times, with 400 ul PBS each time. (6) Fix the cells and denature the DNA by adding 200 μl fixation/denaturation solution to each well for 30-40 min. (7) Remove the fixation/denaturation solution by tapping the plate on the paper towel and add 75 ul of anti BrdU peroxidase antibody to each well. (dilute the antibody to 0.1 U/mL from 15 U/mL stock in PBS containing 1% BSA, Fraction V). Incubate the plate O/N at 4° C. (8) Remove the antibody solution and wash wells four times with 400 μl of PBS. Let the wash solution stay for 3-4 min during each wash. (9) Drain the wells and add 100 μl of chemiluminiscence Elisa reagent (Prepare the reagent 15-20 min before use to bring it to rt by mixing 100 parts of reagent A with 1 part of reagent B). (10) Read the plate in a luminometer. Take 2-3 readings within 6-7 min. Perform the following controls:
Deoxybromouridine (BrdU), anti BrdU peroxidase antibodies, fixation/denaturation solution, chemiluminiscence reagent and BSA Fraction V, were obtained from Boehringer Mannheim. The 96-well white plate with clear bottom were purchased from Corning Costar Corporation. Dulbecco's Modified Eagle Medium containing high glucose, L-glutamine and pyridoxine HCl was obtained from GIBCO BRL.

[2] = system: MES/SA ovarian carcinoma cells; test: FACS assay (cell death by flow cytometry), MES/SA; type: cell-based; settings: Homo sapiens, MES-SA, 72 h, read-out: FACS MES/SA IC50
Protocol: These assays allow determination of both cell death and changes in cell cycle profile in cells following treatment of the compound. The assay is performend as follows:
1. Cells are incubated in DMEM to which 10% FCS has been added in a humidified incubator at 37° C. and 5% by volume of CO2 in air. The cells are innoculated in 6-well plates at a density of 0.5-5×10^5 cells per well.
2. The test compound is added in serial dilutions 24-36 h after plating in 0.5% DMSO. The plates are then incubated a further 72 h in the presence of the compound. During this time, cells in control cultures undergo at least three cell divisions.
3. After incubation, the media is collected and cells are harvested by trypsinization. The cells and media are pooled and pelleted by centrifugation.
4. The cell pellet is fixed in a final volume of 3 mL of 50% ice cold MeOH and incubated for a minimum of 30 min at −20° C.
5. The cells are pelleted by centrifugation and resuspended in 0.5 mL PBS containing 1%FCS, […] Propidium Iodide (PI) and 5 mg/mL RNase A and incubated 30 min at 37° C. in the dark.
6. The samples are analysed by flow cytometry using the relative incorporation of PI as a measure of DNA content of each cell. The % Dead cells is recorded as % of events with less than 2N DNA.
(§1) HDF are normal diploid fibroblast cells. RKO are colon adenocarcinoma cells and MES/SA are […].

[3] = system: RKO colon adenocarcinoma cells; test: MTT assay, RKO; type: cell-based, human
Protocol: Compounds are tested for their ability to inhibit cell proliferation and cell viability. The metabolic conversion of 3-(4,5-dimethylthiazol-2-yl)-2,5-diphenyltetrazolium bromide (MTT, Sigma #M2128) to a reduced form is a commonly used measure of cellular viability. Following is the procedure:
Cells are maintained in 75 cm^2 tissue culture flasks until ready for use. The cells are grown and plated for the assay in Dulbecco's modified Eagle's media (DMEM) containing 10% fetal bovine serum. For example, the following cell lines can be used: a) human foreskin fibroblasts (HFF); b) HT29 (human colon carcinoma cell line); c)MDA-MB-468 (human breast carcinoma cell line); d) RKO (human colon adenocarcinoma cell line); e) SW620 (human colon carcinoma cell line); f) A549 (human lung carcinoma cell line); and g) MIA PACA (human pancreatic carcinoma cell line). Cells are maintained at 37° C. in 10% CO2, 90% humidified air. Cells are plated in 96-well tissue culture plates at the densities listed below. 100 μL of cell suspension is added to each well of the 96-well plate except the top row of the plate which contains no cells and serves as a reference for the spectrophotometer.
Cells are incubated overnight in DMEM containing 10% fetal bovine serum at 37° C. in 10% CO2, 90% humidified air prior to dosing. […] Compounds with solubilities of less than 30 μM are dosed at the highest soluble concentration. Stock solutions of compounds are made in 100% dimethyl sulfoxide (DMSO). Stock solutions are diluted in DMEM containing 100 μg/ml gentamicin and 0.3 to 0.6% DMSO at the twice the highest concentration to be placed on the cells. If compounds have been dissolved in DMSO the final concentration of DMSO on the cells is kept below 0.3%. Three-fold serial dilutions are performed on each compound to prepare 10 concentrations of the compound for dosing. 100 μl of diluted compound is added to the 100 μl of media currently on the dish. For each concentration of compound, 2-4 replicate wells are prepared.
Cells are returned to incubator and allowed to proliferate in the presence of compound for 72 h before addition of MTT. MTT is prepared in phosphate buffered saline (Irvine Scientific #9240) at a concentration of 2 mg/ml. 50 μl per well of MTT solution is added to the 200 μl of media to yield a final concentration of 0.4 mg/ml and plates are returned to the incubator for 4 h. After 4 h incubation the media, compound and MTT mixture is aspirated from the plates and 100 μl of 100% DMSO is added to each well in addition to 25 μl of Sorenson's Buffer (0.1M glycine, 0.1M NaCl, pH 10.5). Quantitation of metabolic reduction of MTT in each plate is performed by reading optical density at 570 nm wavelength on a Molecular Devices UVmax microplate reader. Growth inhibition curves and 50% inhibitory concentrations are determined using Microsoft Excel.
as §1

[4] = Homo sapiens, Fibroblast; read-out: G1/S Chkpt IC50
[5] = Homo sapiens, 72 h; read-out: MTT RKO IC50
[6] = Homo sapiens, Fibroblast, read-out: G1/S Chkpt IC50
[7] = Homo sapiens, 72 h, read-out: MTT RKO IC50

| SMILES | IC50 [1, 4] [µM] | IC50 ([2]; 50% cell death) [µM] | IC50 [3, 5] [µM] | IC50 [1, 6] [µM] | IC50 [2] [µM] | IC50 [3, 7] [µM] |
| --- | --- | --- | --- | --- | --- | --- |
| CC(C)(CO)CNS(=O)(=O)c1ccc(NC=C2C(=O)Nc3ccc4ncsc4c32)cc1 [Example 77, N-(3-Hydroxy-2,2-dimethyl-propyl)-4-[(7-oxo-6,7-dihydro-1-thia-3,6-diaza-as-indacen-8-ylidenemethyl)-amino]-benzenesulfonamide] | 1.1 to 5 | 0.6 to 1 | 1.1 to 5 | – | – | – |
| CNS(=O)(=O)Cc1ccc(NN=C2C(=O)Nc3cc(C)c(O)c(C)c32)cc1 [Example 99] | 1.1 to 5 | > 5 | 0.1 to 0.5 | – | – | – |
| O=C1Nc2ccc3ncsc3c2C1=CNc1ccc(S(=O)(=O)Nc2ccccn2)cc1 [Example 72, 4-[(7-Oxo-6,7-dihydro-1-thia-3,6-diaza-as-indacen-8-ylidenemethyl)-amino]-N-pyridin-2-yl-benzenesulfonamide] | – | – | – | 1.1 to 5 | > 5 | 1.1 to 5 |
| CS(=O)(=O)Cc1ccc(NC=C2C(=O)Nc3ccc4ncsc4c32)cc1 [Example 76, 8-(4-Methylsulfonylmethyl-phenylamino-methylene)-6,8-dihydro-1-thia-3,6-diaza-as-indacen-7-one] | 1.1 to 5 | 1.1 to 5 | > 5 | – | – | – |
| CNS(=O)(=O)Cc1ccc(NN=C2C(=O)Nc3ccc4ncccc4c32)cc1 [Example 68, N-Methyl-C-{4-[N′-(2-oxo-2,3-dihydro-pyrrolo[3,2-f]quinolin-1-ylidene)-hydrazino]-phenyl}-methanesulfonamide] | – | – | – | 1.1 to 5 | – | > 5 |

From patent US6541503B2, “Substituted oxindole derivatives as protein tyrosine kinase and as protein serine/threonine kinase inhibitors” (SmithKline Beecham Corporation, priority 1997, dated 2003)
